Experimental data published in publication PMC5371653, “Pharmacological and Biochemical Characterization of TLQP-21 Activation of a Binding Site on CHO Cells” (Frontiers in Pharmacology, 2017).
Where two headings read alike, the source gives them in different places.

Columns and labels:
CHO cells [1] = format: cell-based; details: for intracellular Ca2+ levels, maximal response (ΔF/F): peptide 1 μM, vs. HBSS, at least five wells
Method: CHO cells were plated at 20.000 cells/well into black walled, clear bottom 96-well plate (Corning, Germany) and cultured one day up to 80–90% of confluence. […] TLQP-21, TLQP-62, TLQP-8, HHPD-41, HFHH-10, and LRPS-21 were diluted in HBSS solution and injected into the wells by an automated injector system. […] Depletion of Ca^2+ from the ER leads to Ca^2+ entry from outside the cell by activation of Store-Operated Channels (SOCs).

[2] = test system: TLQP-21 binding sites on CHO cell membranes; assay: TLQP-21 binding assay with [125I]-YATL-23 on crude CHO cell membranes; details: competition with 1 nM [125I]-YATL-23, competitor 10 pM to 0.1 μM
Method: Binding of TLQP-21 to crude membranes (30,000 × g pellet) obtained from CHO cells was carried out using [^125I]-YATL-23 as ligand. YATL-23 was radioiodinated (specific activity, 2000 Ci/mmol) using the lactoperoxidase method ([Muccioli et al., 1998]; [Muccioli et al., 2001]) by Perkin Elmer (Milan, Italy) and purified by reverse phase high-performance liquid chromatography. For the single point binding assay, cell membranes (corresponding to 100 μg membrane protein) were incubated in triplicate at 23°C, unless otherwise noted, for 4 h under constant shaking with 0.5 nM [^125I]-YATL-23 in a final volume of 0.5 ml assay buffer (50 mM Tris, 2.5 mM EGTA, 0.002% bacitracin, 0.1% bovine serum albumin, titrated to a final pH of 7.4 with HCl). Non-specific binding was measured in parallel incubations with 1 μM unlabelled YATL-23 to displace the radioligand. Similar results were obtained using TLQP-21 to displace the radioligand. The binding reaction was terminated by the addition of ice-cold assay buffer, followed by rapid filtration through Whatman GF/B filters as previously reported ([Muccioli et al., 1998]) and the radioactivity bound to membranes was measured by a Packard auto-γ-counter. Specific binding-values were calculated as the difference obtained subtracting non-specific from total binding. Specific binding was expressed as a percentage of the total radioactivity added. […]

CHO cells [3] = details: ref Cassina et al., 2013; cited from earlier work
Description: Among several bioactive peptides derived from VGF, TLQP-21 (VGF^556-576) is a 21 amino acid peptide which has been immunopurified from brain tissues ([Bartolomucci et al., 2006]). Despite many efforts to characterize the physiological effects of TLQP-21, little is known about its molecular targets. Nonetheless, adipocytes express a high affinity binding site for TLQP-21 and in these cells TLQP-21 stimulates a pro-lipolytic effect ([Possenti et al., 2012]).

[4] = inhibitor 10 μM, 20 min pretreatment, then 1 μM TLQP-21

Question: For `CC(C)C[C@H](NC(=O)[C@@H](N)[C@@H](C)O)C(=O)N[C@@H](CCC(N)=O)C(=O)N1CCC[C@H]1C(=O)N1CCC[C@H]1C(=O)N[C@@H](C)C(=O)N[C@@H](CO)C(=O)N[C@@H](CO)C(=O)N[C@@H](CCCNC(=N)N)C(=O)N[C@@H](CCCNC(=N)N)C(=O)N[C@@H](CCCNC(=N)N)C(=O)N[C@@H](Cc1c[nH]cn1)C(=O)N[C@@H](Cc1ccccc1)C(=O)N[C@@H](Cc1c[nH]cn1)C(=O)N[C@@H](Cc1c[nH]cn1)C(=O)N[C@@H](C)C(=O)N[C@@H](CC(C)C)C(=O)N1CCC[C@H]1C(=O)N1CCC[C@H]1C(=O)N[C@@H](C)C(=O)N[C@@H](CCCNC(=N)N)C(=O)O` [TLQP-21], which EC50 (CHO cells [1]; CHO cells, stated as 1 μM being close to the EC50, read-out: EC50 of intracellular Ca2+ mobilization) is on record?
Answer: ~1 µM

Question: For “TLQPPASSRRRHFHHALPPARHHPDLEAQARRAQEEADAEERRLQEQEELENYIEHVLLHRP [TLQP-62]”, which “intracellular Ca2+ levels, maximal response (ΔF/F)” value (from here on “intracellular Ca2+ levels … (ΔF/F)”) (CHO cells [1]; repeated at least three times) is on record?
Answer: failed to stimulate any significant increase

Question: For `Cc1nnsc1C(=O)Nc1ccc(-n2nc(C(F)(F)F)cc2C(F)(F)F)cc1` [YM-58483], which “decrement in TLQP-21-mediated intracellular Ca2+ mobilization” value (CHO cells [1]; [4]) is on record?
Answer: ~27%

Question: With `O=C(O)CN(CCOCCOCCN(CC(=O)O)CC(=O)O)CC(=O)O` [EGTA] as the compound, how does the “decrement in TLQP-21-mediated intracellular Ca2+ mobilization” value (CHO cells [1]; chelator 1 mM, 30 min pretreatment, then 1 μM TLQP-21) read?
Answer: ~45%

Question: With `NCCOB(c1ccccc1)c1ccccc1` [2-APB, 2-Aminoethyl diphenylborinate] as the compound, how does the “decrement of TLQP-21 intracellular Ca2+ mobilization” value (CHO cells [1]; inhibitor 75 μM, 15 min preincubation, then 1 μM TLQP-21) read?
Answer: about 79%

Question: For `C/C=C(/C)C(=O)O[C@H]1C(C)=C2[C@H]([C@@H]1OC(=O)CCCCCCC)[C@@](C)(OC(C)=O)C[C@H](OC(=O)CCC)[C@@]1(O)[C@H]2OC(=O)[C@@]1(C)O` [TG, thapsigargin], which “reduction of TLQP-21-mediated increase of intracellular Ca2+” value (CHO cells [1]; inhibitor 2 μM, 20 min preincubation, then 1 μM TLQP-21) is on record?
Answer: 56%

Question: For “HFHHALPPAR [HFHH-10, 10 amino acids at the C-terminal of TLQP-21]”, which “intracellular Ca2+ levels … (ΔF/F)” value (CHO cells [1]; repeated at least three times) is on record?
Answer: effectively stimulated

Question: Which “reduction of TLQP-21 stimulation of intracellular Ca2+ mobilization” value (CHO cells [1]; inhibitor 10 μM, 10 min preincubation, then 1 μM TLQP-21) does the source give for `COc1ccc2c(c1)CC[C@@H]1[C@@H]2CC[C@]2(C)[C@@H](NCCCCCCN3C(=O)C=CC3=O)CC[C@@H]12` [U73122] here?
Answer: about 82%

Question: Which “intracellular Ca2+ levels … (ΔF/F)” value (CHO cells [1]; repeated at least three times) does the source give for “HHPDLEAQARRAQEEADAEERRLQEQEELENYIEHVLLHRP [HHPD-41, VGF-derived peptide from processing of TLQP-62]” here?
Answer: ineffective

Question: For Cyclosporine A [CsA], which “basal levels of intracellular Ca2+” value (CHO cells [1]; 2 μM, before TLQP-21) is on record?
Answer: did not modify

Question: And the “effect on TLQP-21 Ca2+ stimulation” value (CHO cells [1]; inhibitor 2 μM, 15 min preincubation, then 1 μM TLQP-21)?
Answer: did not affect

Question: Which results are given for “LRPSHTRPAHQSFARP LHRPA [LRPS-21, scrambled control peptide with the same amino acid residues as TLQP-21]”?
Answer: intracellular Ca2+ levels, maximal response (CHO cells [1]; peptide 1 nM–10 μM, TLQP-21 significant (P < 0.05) at 0.1 μM–10 μM, at least six wells, repeated at least three times): did not stimulate; inhibition of [125I]-YATL-23 binding to CHO membranes [2]: not inhibited; stimulation of intracellular Ca2+ in CHO cells (CHO cells [3]): did not stimulate

Question: For `COc1ccc(CCCOC(Cn2ccnc2)c2ccc(OC)cc2)cc1` (stereo not shown) [SKF-96365], which “decrement in TLQP-21-mediated intracellular Ca2+ mobilization” value (CHO cells [1]; [4]) is on record?
Answer: about 36%

Question: With “TLQPPASS [TLQP-8, 8 amino acids at the N-terminal of TLQP-21]” as the compound, how does the “intracellular Ca2+ levels … (ΔF/F)” value (CHO cells [1]; repeated at least three times) read?
Answer: slight and non-significant increase
